The values that follow come from patent US7736621B2, “Methods for gauging the effect of a depression treatment by determining the levels of beta-arrestin 1 and G-protein coupled receptor kinase 2” (Hypatia Ltd., priority 2004, dated 2010).

One assay concerns Gs and Gi proteins. As to conditions: cited from earlier work.
The next assay deals with beta-arrestin1. Put plainly: Beta-arrestin 1 levels in rat brain areas after chronic antidepressant treatment (immunoblot). It counts as in vivo. As to conditions: three weeks of treatment. The protocol:
On the 22nd day, rats were decapitated, blood collected and brain regions immediately dissected. Tissue homogenization was carried out in a glass-teflon homogenizer with ice-cold buffer containing 20 mM Tris.Cl pH 7.4, 2 mM EDTA, 1 mM DTT and antiprotease cocktail (Sigma). After initial centrifugation at 800 g for 5 min, the supernatant was collected and further centrifuged at 48,000 g for 30 min using a Beckman Ti80 rotor. The resulting supernatant and pellet were separated: the supernatant fraction was collected and centrifuged at 120,000 g for 45 min and the supernatant obtained was used for all measurements; the pellet was resuspended in the homogenization buffer and the pellet fraction obtained was used for all measurements.
On the day of assay, cytosolic and/or membrane fraction were thawed. 10 μg total protein aliquots were taken for protein separation by SDS-(10%) polyacrylamide gel electrophoresis. The resulting proteins were transferred to nitrocellulose paper by use of electroblotting apparatus. Blots were blocked with 5% BSA for 1 hr in TBS containing 0.1% Tween-20 (TTBS) and incubated overnight with a monoclonal antibody to beta-arrestin1 (Transduction Labs, diluted 1:250). The immune bands were detected by subsequent incubation with anti-mouse IgG labeled with horseradishperoxidase using the Enhanced Chemiluminescence Western Blot Detection System (Amersham) followed by exposure to Kodak X-Omat film. […] Peak heights of immunoreactive bands presented as arbitrary absorbance units, were determined with a computer-assisted imaging system for semi-quantitative measurements. 10 μg rat cortical membranes run in each blot as a standard reference.
Beta-arrestin1 levels were measured in three rat brain areas: cortex, hippocampus and striatum.

In the case of `O=C(CCCN1CCC(O)(c2ccc(Cl)cc2)CC1)c1ccc(F)cc1` [haloperidol], the “Dopamine-induced Gs hyperfunction of untreated patients with schizophrenia” value with Gs and Gi proteins (leukocytes of patients with schizophrenia) was “corrected”. In the assay with Gs and Gi proteins (patients with schizophrenia, reduction correlated with intensity of Parkinsonian side effects), the “Gs level and function” value is “significant decrease in Gs level and function to below normal levels”.

As to `CN(C)CCCN1c2ccccc2CCc2ccccc21` [imipramine], the “Cytosolic beta-arrestin-1 in rat cortex” value with beta-arrestin1 (rat cortex, cytosolic fraction, 10 mg/kg twice daily intragastrically, compared with control group) came to 165.6%. Further, the “Membrane beta-arrestin 1 in rat cortex” value in the assay on beta-arrestin1 (rat cortex, membrane fraction, 10 mg/kg twice daily intragastrically, compared with control group) was determined as 156.8%. Besides, in the assay with beta-arrestin1 (rat hippocampus, cytosolic fraction, 10 mg/kg twice daily intragastrically, compared with control group), the “Cytosolic beta-arrestin-1 in rat hippocampus” value came out at 179.2%. Besides, in the assay on beta-arrestin1 (rat striatum), the “Beta-arrestin 1 levels in striatum” value is recorded as “no alterations”.
